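Growth conditions: 96-well plates. Treatment: test compound, 48 hours, 5 concentrations. Analysis: linear interpolation between bracketing concentrations; unreached endpoints set to highest concentration. TGI is the concentration that stops growth completely.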
Experiments:
Assay in all cases: NCI tumour cell line growth inhibition, 48 h
786-0 renal = test system: 786-0 renal
A498 renal = test system: A498 renal
A549 NSCLC = test system: A549 NSCLC
ACHN renal = test system: ACHN renal
CAKI-1 renal = test system: CAKI-1 renal
CCRF-CEM leukemia = test system: CCRF-CEM leukemia
COLO 205 colon = test system: COLO 205 colon
DLD-1 colon = test system: DLD-1 colon
DMS 114 small cell lung = test system: DMS 114 small cell lung
DMS 273 small cell lung = test system: DMS 273 small cell lung
EKVX NSCLC = test system: EKVX NSCLC
HCC-2998 colon = test system: HCC-2998 colon
HCT-116 colon = test system: HCT-116 colon
HCT-15 colon = test system: HCT-15 colon
HL-60(TB) leukemia = test system: HL-60(TB) leukemia
HOP-18 NSCLC = test system: HOP-18 NSCLC
HOP-62 NSCLC = test system: HOP-62 NSCLC
HOP-92 NSCLC = test system: HOP-92 NSCLC
HT29 colon = test system: HT29 colon
IGROV1 ovarian = test system: IGROV1 ovarian
K-562 leukemia = test system: K-562 leukemia
KM12 colon = test system: KM12 colon
KM20L2 colon = test system: KM20L2 colon
LOX IMVI melanoma = test system: LOX IMVI melanoma
LXFL 529 NSCLC = test system: LXFL 529 NSCLC
M14 melanoma = test system: M14 melanoma
M19-MEL melanoma = test system: M19-MEL melanoma
MALME-3M melanoma = test system: MALME-3M melanoma
MOLT-4 leukemia = test system: MOLT-4 leukemia
NCI-H226 lung = test system: NCI-H226 lung
NCI-H23 lung = test system: NCI-H23 lung
NCI-H460 lung = test system: NCI-H460 lung
NCI-H522 lung = test system: NCI-H522 lung
OVCAR-3 ovarian = test system: OVCAR-3 ovarian
OVCAR-4 ovarian = test system: OVCAR-4 ovarian
OVCAR-5 ovarian = test system: OVCAR-5 ovarian
OVCAR-8 ovarian = test system: OVCAR-8 ovarian
RPMI-8226 leukemia = test system: RPMI-8226 leukemia
RXF-631 renal = test system: RXF-631 renal
SF-268 CNS = test system: SF-268 CNS
SF-295 CNS = test system: SF-295 CNS
SF-539 CNS = test system: SF-539 CNS
SK-MEL-2 melanoma = test system: SK-MEL-2 melanoma
SK-MEL-28 melanoma = test system: SK-MEL-28 melanoma
SK-MEL-5 melanoma = test system: SK-MEL-5 melanoma
SK-OV-3 ovarian = test system: SK-OV-3 ovarian
SN12C renal = test system: SN12C renal
SNB-19 CNS = test system: SNB-19 CNS
SNB-75 CNS = test system: SNB-75 CNS
SNB-78 CNS = test system: SNB-78 CNS
SR leukemia = test system: SR leukemia
SW-620 colon = test system: SW-620 colon
TK-10 renal = test system: TK-10 renal
U251 CNS = test system: U251 CNS
UACC-257 melanoma = test system: UACC-257 melanoma
UACC-62 melanoma = test system: UACC-62 melanoma
UO-31 renal = test system: UO-31 renal
XF 498 CNS = test system: XF 498 CNS
RXF 393 renal = test system: RXF 393 renal

c1cc(-c2cn3ccsc3n2)ccn1
TGI (786-0 renal): > 100 µM
TGI (A498 renal): > 100 µM
TGI (A549 NSCLC): > 100 µM
TGI (ACHN renal): > 100 µM
TGI (CAKI-1 renal): > 100 µM
TGI (CCRF-CEM leukemia): > 60.5 µM
TGI (COLO 205 colon): > 100 µM
TGI (DLD-1 colon): > 100 µM
TGI (DMS 114 small cell lung): > 100 µM
TGI (DMS 273 small cell lung): > 100 µM
TGI (EKVX NSCLC): 98.7 µM
TGI (HCC-2998 colon): > 100 µM
TGI (HCT-116 colon): > 100 µM
TGI (HCT-15 colon): > 62 µM
TGI (HL-60(TB) leukemia): > 60.1 µM
TGI (HOP-18 NSCLC): > 100 µM
TGI (HOP-62 NSCLC): > 100 µM
TGI (HOP-92 NSCLC): > 100 µM
TGI (HT29 colon): > 100 µM
TGI (IGROV1 ovarian): > 100 µM
TGI (K-562 leukemia): > 70.3 µM
TGI (KM12 colon): > 100 µM
TGI (KM20L2 colon): > 31.6 µM
TGI (LOX IMVI melanoma): > 100 µM
TGI (LXFL 529 NSCLC): > 100 µM
TGI (M14 melanoma): > 100 µM
TGI (M19-MEL melanoma): > 100 µM
TGI (MALME-3M melanoma): > 100 µM
TGI (MOLT-4 leukemia): > 100 µM
TGI (NCI-H226 lung): > 100 µM
TGI (NCI-H23 lung): > 100 µM
TGI (NCI-H460 lung): > 100 µM
TGI (NCI-H522 lung): > 100 µM
TGI (OVCAR-3 ovarian): > 100 µM
TGI (OVCAR-4 ovarian): > 100 µM
TGI (OVCAR-5 ovarian): > 100 µM
TGI (OVCAR-8 ovarian): > 63.8 µM
TGI (RPMI-8226 leukemia): > 81.4 µM
TGI (RXF-631 renal): > 100 µM
TGI (SF-268 CNS): > 100 µM
TGI (SF-295 CNS): > 100 µM
TGI (SF-539 CNS): > 100 µM
TGI (SK-MEL-2 melanoma): > 100 µM
TGI (SK-MEL-28 melanoma): > 100 µM
TGI (SK-MEL-5 melanoma): > 100 µM
TGI (SK-OV-3 ovarian): > 100 µM
TGI (SN12C renal): > 100 µM
TGI (SNB-19 CNS): > 100 µM
TGI (SNB-75 CNS): > 100 µM
TGI (SNB-78 CNS): > 100 µM
TGI (SR leukemia): > 100 µM
TGI (SW-620 colon): > 62.3 µM
TGI (TK-10 renal): > 100 µM
TGI (U251 CNS): > 100 µM
TGI (UACC-257 melanoma): > 100 µM
TGI (UACC-62 melanoma): > 100 µM
TGI (UO-31 renal): > 100 µM
TGI (XF 498 CNS): > 100 µM

O=C(O)c1ccc([Se][Se]c2ccc(C(=O)O)cc2)cc1
TGI (786-0 renal): > 100 µM
TGI (A549 NSCLC): > 100 µM
TGI (CAKI-1 renal): 36.7 µM
TGI (COLO 205 colon): 74 µM
TGI (DLD-1 colon): > 100 µM
TGI (DMS 114 small cell lung): 54 µM
TGI (DMS 273 small cell lung): 49.7 µM
TGI (EKVX NSCLC): 64.3 µM
TGI (HCC-2998 colon): > 100 µM
TGI (HCT-116 colon): 34.5 µM
TGI (HCT-15 colon): > 100 µM
TGI (HOP-18 NSCLC): 82.3 µM
TGI (IGROV1 ovarian): 71.1 µM
TGI (KM12 colon): 68.4 µM
TGI (KM20L2 colon): > 100 µM
TGI (LXFL 529 NSCLC): 62.4 µM
TGI (M14 melanoma): 35.6 µM
TGI (M19-MEL melanoma): 40.5 µM
TGI (MALME-3M melanoma): 68.3 µM
TGI (NCI-H226 lung): 76.5 µM
TGI (NCI-H23 lung): 37.6 µM
TGI (NCI-H460 lung): 54.9 µM
TGI (NCI-H522 lung): 52 µM
TGI (OVCAR-3 ovarian): 42.9 µM
TGI (OVCAR-4 ovarian): 49.1 µM
TGI (OVCAR-5 ovarian): 66.8 µM
TGI (OVCAR-8 ovarian): 70.8 µM
TGI (RPMI-8226 leukemia): 91.7 µM
TGI (RXF 393 renal): 52.9 µM
TGI (RXF-631 renal): 52.6 µM
TGI (SF-268 CNS): > 100 µM
TGI (SF-295 CNS): 54.7 µM
TGI (SF-539 CNS): 92.1 µM
TGI (SK-MEL-2 melanoma): 63.2 µM
TGI (SK-MEL-28 melanoma): 55.6 µM
TGI (SN12C renal): > 100 µM
TGI (SNB-19 CNS): > 100 µM
TGI (SNB-75 CNS): 88.3 µM
TGI (SNB-78 CNS): 52.4 µM
TGI (SW-620 colon): > 100 µM
TGI (TK-10 renal): 54.1 µM
TGI (U251 CNS): 49.6 µM
TGI (UACC-62 melanoma): 33.4 µM
TGI (UO-31 renal): 77.7 µM
TGI (XF 498 CNS): 81.1 µM

CCCCCCCCCCCCOC(=S)NCCCC
TGI (786-0 renal): 67.7 µM
TGI (A498 renal): 43.1 µM
TGI (ACHN renal): 50.5 µM
TGI (CCRF-CEM leukemia): 80.4 µM
TGI (DLD-1 colon): > 100 µM
TGI (DMS 114 small cell lung): 37.7 µM
TGI (DMS 273 small cell lung): 41 µM
TGI (EKVX NSCLC): 47.8 µM
TGI (HCC-2998 colon): 34 µM
TGI (HCT-116 colon): 35 µM
TGI (HCT-15 colon): 37.2 µM
TGI (HL-60(TB) leukemia): 43.1 µM
TGI (HOP-18 NSCLC): 89.1 µM
TGI (HOP-62 NSCLC): 73.4 µM
TGI (HOP-92 NSCLC): 46.9 µM
TGI (HT29 colon): 38.1 µM
TGI (IGROV1 ovarian): 81.1 µM
TGI (K-562 leukemia): 41.3 µM
TGI (KM12 colon): 41.9 µM
TGI (KM20L2 colon): 39.5 µM
TGI (LOX IMVI melanoma): 32 µM
TGI (LXFL 529 NSCLC): > 100 µM
TGI (M14 melanoma): 79 µM
TGI (M19-MEL melanoma): > 100 µM
TGI (MALME-3M melanoma): 64 µM
TGI (MOLT-4 leukemia): 36 µM
TGI (NCI-H226 lung): 45.1 µM
TGI (NCI-H23 lung): 57.9 µM
TGI (NCI-H460 lung): 53.2 µM
TGI (NCI-H522 lung): 36.5 µM
TGI (OVCAR-4 ovarian): 99.7 µM
TGI (OVCAR-5 ovarian): 51.4 µM
TGI (OVCAR-8 ovarian): 40.2 µM
TGI (RPMI-8226 leukemia): 34.2 µM
TGI (RXF 393 renal): 56.8 µM
TGI (RXF-631 renal): 55.6 µM
TGI (SF-268 CNS): 58.1 µM
TGI (SF-295 CNS): > 100 µM
TGI (SF-539 CNS): 48.5 µM
TGI (SK-MEL-2 melanoma): 44.2 µM
TGI (SK-MEL-28 melanoma): 90.9 µM
TGI (SK-OV-3 ovarian): 71.1 µM
TGI (SN12C renal): 45.2 µM
TGI (SNB-19 CNS): > 100 µM
TGI (SNB-75 CNS): 95.1 µM
TGI (SNB-78 CNS): 88.4 µM
TGI (SR leukemia): 42.7 µM
TGI (SW-620 colon): 35.5 µM
TGI (TK-10 renal): > 100 µM
TGI (U251 CNS): 37.2 µM
TGI (UACC-257 melanoma): 44 µM
TGI (UACC-62 melanoma): 40.6 µM
TGI (UO-31 renal): 20.1 µM
TGI (XF 498 CNS): 31.9 µM
